Source: PubChem BioAssay (NCI)
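Dose response: 5 concentrations. Exposure: 48 h. Format: 96-well plates. Endpoint: linear interpolation; highest concentration if not reached. GI50 = concentration required for 50% inhibition of growth. TGI denotes the concentration required for complete inhibition of growth.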

Columns and labels:
Assay in all cases: NCI tumour cell line growth inhibition, 48 h
SF-295 CNS = tested on: SF-295 CNS
HOP-62 NSCLC = tested on: HOP-62 NSCLC
OVCAR-8 ovarian = tested on: OVCAR-8 ovarian
OVCAR-3 ovarian = tested on: OVCAR-3 ovarian
SK-OV-3 ovarian = tested on: SK-OV-3 ovarian
SR leukemia = tested on: SR leukemia
OVCAR-4 ovarian = tested on: OVCAR-4 ovarian
SN12C renal = tested on: SN12C renal

Compound	GI50 (SF-295 CNS) [µM]	TGI (SF-295 CNS) [µM]	GI50 (HOP-62 NSCLC) [µM]	TGI (HOP-62 NSCLC) [µM]	GI50 (OVCAR-8 ovarian) [µM]	TGI (OVCAR-8 ovarian) [µM]	GI50 (OVCAR-3 ovarian) [µM]	TGI (OVCAR-3 ovarian) [µM]	GI50 (SK-OV-3 ovarian) [µM]	TGI (SK-OV-3 ovarian) [µM]	GI50 (SR leukemia) [µM]	TGI (SR leukemia) [µM]	GI50 (OVCAR-4 ovarian) [µM]	TGI (OVCAR-4 ovarian) [µM]	GI50 (SN12C renal) [µM]	TGI (SN12C renal) [µM]
C=C(CN(C)Cc1ccccc1)c1ccc(C(=O)Nc2ccccc2N)cc1	5.4	16.7	3.61	> 50	1.56	14.4	3.56	16	5.28	14.4	2.87	> 50	8.28	> 50	–	–
COc1ccc(C2SCC(=O)N2NC(=O)C(O)c2ccccc2)cc1 (configuration not stated)	> 100	> 100	> 100	> 100	> 100	> 100	> 100	> 100	> 100	> 100	> 100	> 100	> 100	> 100	> 100	> 100
Clc1ccc(-c2nc(C(Cl)Cl)nc3cc(-c4ccccc4)nn23)cc1	1.45	> 50	1.22	4.57	1.44	> 50	0.925	2.01	1.38	4.75	0.645	3.94	0.917	3.63	> 50	> 50
CSC(=NC#N)S/C=C/C(=O)c1cccc2ccccc12	> 100	> 100	34	61.2	31.9	> 100	18	48.2	61.1	> 100	4.71	> 100	47.9	> 100	31.1	> 100
CCOC(=O)Nc1ccc(C(=O)/C=C/c2ccccc2)cc1	41.7	> 100	20.4	47.3	33.5	> 100	18.9	75.3	26.3	77.5	3.68	> 100	43.8	> 100	24.4	> 100
CC(=O)[O][Hg][CH2]C1(C)COC(C)([CH2][Hg][O]C(C)=O)CO1 (configuration not stated)	3.62	8.44	40.5	> 63.5	6.03	52.1	–	0.0232	17.5	31.8	0.607	3.59	26.4	74.4	0.887	4.49
CC(C)C[C@H]1C(=O)N2CCC[C@H]2[C@]2(O)O[C@](NC(=O)[C@@H]3C=C4c5cccc6[nH]c(Br)c(c56)C[C@H]4N(C)C3)(C(C)C)C(=O)N12	–	> 100	–	> 100	–	> 100	–	> 100	–	> 100	–	> 100	–	> 100	–	> 100
Cc1cccc2c(N=Nc3ccccc3[N+](=O)[O-])c(O)[nH]c12	–	28.3	–	21.8	–	> 38.2	–	30	–	21.8	–	38.7	–	16.9	–	26.8
CN(N=O)C(=O)Nc1ccc(C(=O)O)cc1	–	> 100	–	> 100	–	> 100	–	> 100	–	> 100	–	> 100	–	> 100	–	> 100
CCCCCCCC(=O)NS(=O)(=O)c1ccccc1	–	> 100	–	> 100	–	> 100	–	> 100	–	> 100	–	> 100	–	> 100	–	–
COc1ccc(Nc2ncc(-c3ccccc3)o2)cc1OC	> 24.2	> 25	> 25	> 25	16.2	> 25	> 15.6	> 25	12.7	> 25	–	–	> 22.2	> 25	> 21.6	> 25
COC(=O)[C@@H]1[C@H](O)[C@H](C)[C@H](O)[C@H](C)/C=C\C=C(C)C(=O)Nc2c(C)c(OC(C)=O)c3c(c2O)C(=O)C(C)=C2OCOC(=C23)C(C)=C[C@@](C)(O)[C@H](O)[C@@H](C)[C@H]1OC(C)=O	–	> 100	–	> 100	–	> 100	–	–	–	–	–	> 100	–	> 100	–	> 100
CC(=O)Oc1ccccc1C(=O)NCCC[Se]C#N	1.89	3.67	1.51	2.92	1.95	4.1	–	–	3.33	6.16	2.02	9.4	3.62	25.7	3.2	12.4
CC(=O)OC1CC2(O)C(CCC3(C)C(c4ccc(=O)oc4)CCC32O)C2(C)CCC(OC3OC(CO)C(O)C(O)C3O)C=C12 (configuration not stated)	0.0302	0.168	0.0201	0.144	0.0294	0.126	0.0282	0.0949	0.0447	0.717	0.015	0.0541	0.0273	0.153	–	–
CNC1=CC(=O)C2=C(C1=O)C1C3=C(C(=O)C(Br)=C(OC)C3=O)C2c2ccccc21 (configuration not stated)	2.85	10	1.55	4.61	3.87	> 50	1.5	3.1	2.15	> 50	–	–	2.3	15.6	1.05	2.07
OCC#CCCCCOCC#Cc1ccccc1C#CCOCCCCC#CCO	19.2	56.5	–	–	52.3	> 100	18.7	45.7	–	–	43.6	> 100	14.8	53.9	22.3	39
NC(=NCCO)c1ccc(N2CCCN(c3ccc(C(N)=NCCO)cc3)CC2)cc1	> 100	> 100	91.7	> 100	> 100	> 100	> 100	> 100	–	–	–	–	> 100	> 100	8.8	> 100
Cc1ccc(N(/C=C/C(=O)C(F)(F)F)CC(=O)c2ccc(Cl)c(Cl)c2)cc1	4.24	16.6	12.3	24.8	14.1	27.1	3.19	16.3	–	–	2.97	12.6	–	–	13.1	25.8
